From the OligoGym collection come the findings set out here.

These antisense oligonucleotides have a phosphorothioate backbone; sugars and methylation of C are not fully specified.

Holding throughout (conditions): ASO
Data set [1] deals with MAP2K2.
Data set [2] concerns the target XIAP.
Data set [3] has as its target MAP3K5.
Further: test concentration or dose not given here.

In data set [1], GATGTACGGCGAGTTGCA came in with a remaining target (mRNA or protein) (fraction of control) of 0.81.

In data set [2], GATGTCTGCAGGTACACAAG returned a remaining target (mRNA or protein) (fraction of control) of 0.56.

The sequence GCACGATCACATGAATGTTA gave a remaining target (mRNA or protein) (fraction of control) in data set [3] of 0.58.

Sequence GCATGACAACTAAAGCACCG gave a remaining target (mRNA or protein) (fraction of control) in data set [2] of 0.56.

In data set [3], GCCGGCTGACAAGTCGGCTC showed a remaining target (mRNA or protein) (fraction of control) of 0.43.

With GGATGGTGCAGAAGCCCGAG, the remaining target (mRNA or protein) (fraction of control) in data set [3] came out at 0.5.

In data set [3], GGCCTCGCTCTCGGCCACCA returned a remaining target (mRNA or protein) (fraction of control) of 0.03.

Sequence GGTAGGGTTGATGGTGAG yielded a remaining target (mRNA or protein) (fraction of control) in data set [1] of 0.56.

With GGTGCTCTCCGCAGGGTG, the remaining target (mRNA or protein) (fraction of control) in data set [1] came to 0.2.

Regarding GGTTAGGTTACTGATGTTAG, in data set [2], the remaining target (mRNA or protein) (fraction of control) is at least 1.

With GGTTCTTGATGAGGCATT, the remaining target (mRNA or protein) (fraction of control) in data set [1] is 0.31.

GTCACTGTAGAAGGCCCC gave a remaining target (mRNA or protein) (fraction of control) in data set [1] of 0.38.

Regarding GTCATCTTCTCTTGAAAATA, in data set [2], the remaining target (mRNA or protein) (fraction of control) is 0.72.

GTGCATGATCTGGTGCTT registered a remaining target (mRNA or protein) (fraction of control) in data set [1] of 0.24.

Sequence GTGCCCTGCAACCGCTCC had a remaining target (mRNA or protein) (fraction of control) in data set [1] of 0.14.

In data set [1], GTGTCCTCAGCTGGAAGG displayed a remaining target (mRNA or protein) (fraction of control) of 0.61.

GTTCACGAGGATGTTGGA: the remaining target (mRNA or protein) (fraction of control) in data set [1] was determined as 0.82.

For GTTTTGTTTTGTAACCTA, the remaining target (mRNA or protein) (fraction of control) in data set [1] was 0.72.

TAACCTAAGGAAGCAGAG: the remaining target (mRNA or protein) (fraction of control) in data set [1] came out at 0.33.

On to TAATGGAATTCAATCCTGAT, for which the remaining target (mRNA or protein) (fraction of control) in data set [2] was determined as 0.83.

As for TACCTTCCGACGGCCAGC, the remaining target (mRNA or protein) (fraction of control) in data set [1] was 0.18.

The sequence TAGAGTCCAGCACTTGCTAA gave a remaining target (mRNA or protein) (fraction of control) in data set [2] of 0.4.

With TAGCAAAAGTTTTTAATCTA, the remaining target (mRNA or protein) (fraction of control) in data set [2] was determined as 0.99.

As to TAGGACTTGTCCACCTTTTC, the remaining target (mRNA or protein) (fraction of control) in data set [2] amounted to 0.58.

The sequence TATGATGCTTCTTATTCTTA returned a remaining target (mRNA or protein) (fraction of control) in data set [2] of 0.65.

On to TATTAACAACATACATACTT, for which the remaining target (mRNA or protein) (fraction of control) in data set [2] is at least 1.

Sequence TCACCCCGAAGTCACACA came in with a remaining target (mRNA or protein) (fraction of control) in data set [1] of 0.56.

The sequence TCATCGTCTTTGAGTTCG registered a remaining target (mRNA or protein) (fraction of control) in data set [1] of 0.45.

The sequence TCCACCAGCATGGAACAATT displayed a remaining target (mRNA or protein) (fraction of control) in data set [2] of 0.71.

In data set [1], TCCACCAGGTTTGCCTCG returned a remaining target (mRNA or protein) (fraction of control) of 0.14.

In data set [1], TCCATCCCGTGACCGCTG yielded a remaining target (mRNA or protein) (fraction of control) of 0.18.

The sequence TCCGCCTCCGTGCTCATCTC displayed a remaining target (mRNA or protein) (fraction of control) in data set [3] of 0.12.

In turn, TCCGTGCTCATCTCTCCGGG had a remaining target (mRNA or protein) (fraction of control) in data set [3] of 0.17.

Consider TCCTTGTTAACTGAGTATAT, for which the remaining target (mRNA or protein) (fraction of control) in data set [2] turned out to be 0.69.

TCTAATGTTCAGGATTATTT returned a remaining target (mRNA or protein) (fraction of control) in data set [3] of at least 1.

Take TCTCCTCGGGAATCCTCT: the remaining target (mRNA or protein) (fraction of control) in data set [1] was 0.43.

In turn, TCTCTCCGGGCCGGGCAGCA yielded a remaining target (mRNA or protein) (fraction of control) in data set [3] of at least 1.

As to TCTGCATGTGTCTCAGATGG, the remaining target (mRNA or protein) (fraction of control) in data set [2] amounted to 0.42.

Consider TCTGCTTTCAGTGTCCGTGA, for which the remaining target (mRNA or protein) (fraction of control) in data set [3] turned out to be 0.21.

TCTTCTCTTGAAAATAGGAC yielded a remaining target (mRNA or protein) (fraction of control) in data set [2] of 0.96.

TCTTTCAGCACCTGGTCC: the remaining target (mRNA or protein) (fraction of control) in data set [1] came to 0.48.

For TGACTAGATGTCCACAAGGA, in data set [2], the remaining target (mRNA or protein) (fraction of control) is 0.61.

In turn, TGAGCAACAGTCAAGTCTGT yielded a remaining target (mRNA or protein) (fraction of control) in data set [3] of 0.56.

In turn, TGCCTACTATAGAGTTAGAT registered a remaining target (mRNA or protein) (fraction of control) in data set [2] of 0.6.

With TGCTCATCTCTCCGGGCCGG, the remaining target (mRNA or protein) (fraction of control) in data set [3] worked out at 0.4.

Turning to TGCTCTTCAGTACTAATCTC, in data set [2], the remaining target (mRNA or protein) (fraction of control) stood at 0.58.

In data set [1], TGGTTTGTGAGCATCTTC had a remaining target (mRNA or protein) (fraction of control) of 0.29.

TGTCAACCCCTTCATGAAGC: the remaining target (mRNA or protein) (fraction of control) in data set [3] was 0.19.

In data set [1], TGTGTTCCATGCAAATGC registered a remaining target (mRNA or protein) (fraction of control) of 0.75.

In data set [2], TGTTAAAAGTCATCTTCTCT had a remaining target (mRNA or protein) (fraction of control) of 0.84.

Take TTAAAAGTCATCTTCTCTTG: the remaining target (mRNA or protein) (fraction of control) in data set [2] was at least 1.

Sequence TTCAAAACTGTTAAAAGTCA came in with a remaining target (mRNA or protein) (fraction of control) in data set [2] of at least 1.

In the case of TTCGTCCGCCTCCGTGCTCA, in data set [3], the remaining target (mRNA or protein) (fraction of control) was found to be 0.18.

Turning to TTCTAAAGTCTCTACCAGCT, in data set [3], the remaining target (mRNA or protein) (fraction of control) was found to be 0.24.

With TTGAAAATAGGACTTGTCCA, the remaining target (mRNA or protein) (fraction of control) in data set [2] stood at 0.93.

In data set [1], TTGGCTTTCTGGGTGAGA registered a remaining target (mRNA or protein) (fraction of control) of 0.83.

TTGTACTGACCATTCTGGAT gave a remaining target (mRNA or protein) (fraction of control) in data set [2] of 0.47.

In turn, TTTCGAAGTCATCGTCTT had a remaining target (mRNA or protein) (fraction of control) in data set [1] of 0.56.
